Test results reported in PubChem BioAssay AID248 (DTP/NCI, 2004).
Values joined by “and” are separate entries in the source; they are usually repeats but may differ in a detail not shown here. Identical values can stand only once. Toxic doses and inconclusive results are not listed.

System: L1210 leukemia ip in BDF1 mice, survival T/C
Assay: NCI In Vivo Anticancer Drug Screen. Data for tumor model L1210 Leukemia (intraperitoneal) in B6D2F1 (BDF1) mice
Settings: endpoint: mean survival time, higher = longer survival
Procedure, shortened: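 In this screen, tumor-bearing mice given compound are compared to those given vehicle, and their survival values are reported as a treated-to-control quotient.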

[1] = dose: 100.0 mg/kg/injection, schedule: Q04DX003 (ip), vehicle: Klucel (hydroxypropylcellulose) (HPC)
[2] = dose: 200.0 mg/kg/injection, schedule: Q04DX003 (ip), vehicle: Klucel (hydroxypropylcellulose) (HPC)
[3] = dose: 400.0 mg/kg/injection, schedule: Q04DX003 (ip), vehicle: Klucel (hydroxypropylcellulose) (HPC)
[4] = dose: 100.0 mg/kg/injection, schedule: Q01DX001 (ip), vehicle: saline
[5] = dose: 200.0 mg/kg/injection, schedule: Q01DX001 (ip), vehicle: saline
[6] = dose: 25.0 mg/kg/injection, schedule: Q01DX009 (ip), vehicle: saline with Tween-80
[7] = dose: 100.0 mg/kg/injection, schedule: Q01DX009 (ip), vehicle: saline with Tween-80
[8] = dose: 200.0 mg/kg/injection, schedule: Q01DX009 (ip), vehicle: saline with Tween-80
[9] = dose: 400.0 mg/kg/injection, schedule: Q01DX009 (ip), vehicle: saline with Tween-80
[10] = dose: 100.0 mg/kg/injection, schedule: Q04DX003 (ip), vehicle: saline with Tween-80
[11] = dose: 200.0 mg/kg/injection, schedule: Q04DX003 (ip), vehicle: saline with Tween-80
[12] = dose: 400.0 mg/kg/injection, schedule: Q04DX003 (ip), vehicle: saline with Tween-80
[13] = dose: 75.0 mg/kg/injection, schedule: Q01DX001 (ip), vehicle: saline
[14] = dose: 400.0 mg/kg/injection, schedule: Q01DX001 (ip), vehicle: saline
[15] = dose: 75.0 mg/kg/injection, schedule: Q04DX003 (ip), vehicle: saline
[16] = dose: 150.0 mg/kg/injection, schedule: Q04DX003 (ip), vehicle: saline

Cc1ccc(S(=O)(=O)N/N=C/c2ccc([N+](=O)[O-])s2)cc1
T/C [1]: 96 % of control
T/C [2]: 94 % of control
T/C [3]: 96 % of control

Cn1c(=O)c2[nH]c(C3CCCC3)nc2n(C)c1=O
T/C (dose: 50.0 mg/kg/injection, schedule: Q01DX001 (ip), vehicle: saline): 96 % of control
T/C [4]: 96 % of control
T/C [5]: 96 % of control

CCOC(=O)CS(=O)c1c([N+](=O)[O-])ncn1C (configuration not stated)
T/C (dose: 6.25 mg/kg/injection, schedule: Q01DX009 (ip), vehicle: saline with Tween-80): 97 % of control
T/C (dose: 12.5 mg/kg/injection, schedule: Q01DX009 (ip), vehicle: saline with Tween-80): 94 % of control
T/C [6]: 103 % of control

Cc1ccc(NC(=O)COc2ccc(Cl)cc2Cl)cc1Cl
T/C [6]: 91 % of control
T/C (dose: 50.0 mg/kg/injection, schedule: Q01DX009 (ip), vehicle: saline with Tween-80): 89 % of control
T/C [7]: 86 % of control
T/C [8]: 87 % of control
T/C [9]: 88 % of control

FC(F)(F)c1nc(Cl)c2cn[nH]c2n1
T/C (dose: 44.0 mg/kg/injection, schedule: Q01DX Z (ip), vehicle: methylcellulose (MC)): 104 % of control
T/C (dose: 66.0 mg/kg/injection, schedule: Q01DX Z (ip), vehicle: methylcellulose (MC)): 103 % of control
T/C (dose: 100.0 mg/kg/injection, schedule: Q01DX Z (ip), vehicle: methylcellulose (MC)): 100 % of control

Cc1ccc(CC2CC(=O)c3ccccc3C2=O)cc1 (configuration not stated)
T/C [10]: 91 % of control
T/C [11]: 91 % of control
T/C [12]: 89 % of control

CC(C)CC(N)C(=O)NNc1ccccc1 (configuration not stated)
T/C [13]: 101 % of control
T/C (dose: 150.0 mg/kg/injection, schedule: Q01DX001 (ip), vehicle: saline): 103 % of control
T/C (dose: 300.0 mg/kg/injection, schedule: Q01DX001 (ip), vehicle: saline): 108 % of control

CC(=O)NS(=O)(=O)CCCC[n+]1c(C)oc2ccc(-c3ccccc3)cc21
T/C (dose: 100.0 mg/kg/injection, schedule: Q04DX003 (sc), vehicle: olive oil, sesame oil, peanut oil): 98 % of control
T/C (dose: 200.0 mg/kg/injection, schedule: Q04DX003 (sc), vehicle: olive oil, sesame oil, peanut oil): 100 % of control
T/C (dose: 400.0 mg/kg/injection, schedule: Q04DX003 (sc), vehicle: olive oil, sesame oil, peanut oil): 100 % of control

CN(C)C1C(=O)C(C(=O)NCNC(CCS(C)=O)C(=O)O)=C(O)C2(O)C(=O)C3=C(O)c4c(O)cccc4C(C)(O)C3CC12 (configuration not stated)
T/C [4]: 91 % of control
T/C (dose: 100.0 mg/kg/injection, schedule: Q04DX003 (ip), vehicle: saline): 95 % of control
T/C [5]: 91 % of control
T/C (dose: 200.0 mg/kg/injection, schedule: Q04DX003 (ip), vehicle: saline): 92 % of control
T/C [14]: 91 % of control
T/C (dose: 400.0 mg/kg/injection, schedule: Q04DX003 (ip), vehicle: saline): 87 % of control

O=[N+]([O-])c1ccc2c(c1)=N/C(=N\c1nc(O)c(O)[nH]1)N=2
T/C [1]: 101 % of control
T/C [2]: 98 % of control
T/C [3]: 104 % of control

COC(=O)c1ccccc1OC(=O)Nc1ccc(SC)cc1
T/C (dose: 50.0 mg/kg/injection, schedule: Q04DX002 (ip), vehicle: saline with Tween-80): 96 % of control and 91 % of control
T/C [7]: 96 % of control
T/C (dose: 100.0 mg/kg/injection, schedule: Q04DX002 (ip), vehicle: saline with Tween-80): 96 % of control and 104 % of control and 86 % of control
T/C [10]: 100 % of control
T/C [8]: 94 % of control and 89 % of control
T/C (dose: 200.0 mg/kg/injection, schedule: Q04DX002 (ip), vehicle: saline with Tween-80): 95 % of control and 104 % of control
T/C [11]: 98 % of control
T/C [9]: 102 % of control and 115 % of control
T/C (dose: 400.0 mg/kg/injection, schedule: Q04DX002 (ip), vehicle: saline with Tween-80): 93 % of control and 105 % of control and 107 % of control
T/C [12]: 97 % of control

O=C1CC(=O)N(c2ccccc2)N1
T/C [4]: 96 % of control
T/C [5]: 98 % of control
T/C [14]: 98 % of control

Nc1ccc(Nc2ccccc2)c(N)c1
T/C (dose: 50.0 mg/kg/injection, schedule: Q01DX009 (ip), vehicle: saline): 98 % of control
T/C (dose: 75.0 mg/kg/injection, schedule: Q01DX009 (ip), vehicle: saline): 102 % of control
T/C [15]: 103 % of control
T/C [16]: 96 % of control

CC1CCC2(CC3C(CC(C4CCC5CC(O)CCC5(C)C4CC(=O)O)C3(C)O)O2)OC1 (configuration not stated)
T/C [15]: 89 % of control
T/C [16]: 100 % of control
T/C (dose: 300.0 mg/kg/injection, schedule: Q04DX003 (ip), vehicle: saline): 87 % of control

O=C(c1c2c(nc3ccccc13)CCCC2)N1CCOCC1
T/C [4]: 100 % of control
T/C [5]: 97 % of control
T/C [14]: 97 % of control

CCCCCCCCCCCCC/C=C/CC(CC(=O)O)C(=O)Nc1cccc2c[n+](CC(=O)c3ccc(NC(C)=O)cc3)ccc12 (configuration not stated)
T/C [1]: 111 % of control
T/C [2]: 101 % of control
T/C [3]: 105 % of control

CC1CN=C(c2ccc(NC(=O)c3cccc(C(=O)Nc4ccc(C5=NCC(C)N5)cc4)c3)cc2)N1 (configuration not stated)
T/C (dose: 4.5 mg/kg/injection, schedule: Q01DX Z (ip), vehicle: carboxymethylcellulose (CMC)): 98 % of control
T/C (dose: 6.8 mg/kg/injection, schedule: Q01DX Z (ip), vehicle: carboxymethylcellulose (CMC)): 95 % of control
T/C (dose: 10.2 mg/kg/injection, schedule: Q01DX Z (ip), vehicle: carboxymethylcellulose (CMC)): 124 % of control
T/C (dose: 16.4 mg/kg/injection, schedule: Q01DX Z (ip), vehicle: carboxymethylcellulose (CMC)): 101 % of control
T/C (dose: 37.0 mg/kg/injection, schedule: Q01DX Z (ip), vehicle: carboxymethylcellulose (CMC)): 155 % of control
T/C (dose: 40.0 mg/kg/injection, schedule: Q01DX Z (ip), vehicle: carboxymethylcellulose (CMC)): 151 % of control
T/C (dose: 50.0 mg/kg/injection, schedule: Q## X010 (oral), vehicle: saline): 97 % of control
T/C (dose: 55.5 mg/kg/injection, schedule: Q01DX Z (ip), vehicle: carboxymethylcellulose (CMC)): 113 % of control and 87 % of control
T/C (dose: 100.0 mg/kg/injection, schedule: Q## X010 (oral), vehicle: saline): 103 % of control
T/C (dose: 200.0 mg/kg/injection, schedule: Q## X010 (oral), vehicle: saline): 96 % of control

CC[N+](C)(C)C1CCCCC1
T/C [13]: 94 % of control

O=C1OC(=C(c2ccccc2)c2ccccc2)c2ccccc21
T/C (dose: 100.0 mg/kg/injection, schedule: Q01DX009 (ip), vehicle: saline): 100 % of control
T/C [10]: 96 % of control
T/C (dose: 200.0 mg/kg/injection, schedule: Q01DX009 (ip), vehicle: saline): 100 % of control
T/C [11]: 96 % of control
T/C [12]: 90 % of control

CCOC(=O)NC(NC(=O)OCC)C(Br)(Br)Br
T/C (dose: 25.0 mg/kg/injection, schedule: Q01DX001 (ip), vehicle: Klucel (hydroxypropylcellulose) (HPC)): 112 % of control
T/C (dose: 25.0 mg/kg/injection, schedule: Q04DX002 (ip), vehicle: Klucel (hydroxypropylcellulose) (HPC)): 104 % of control
T/C (dose: 50.0 mg/kg/injection, schedule: Q01DX001 (ip), vehicle: Klucel (hydroxypropylcellulose) (HPC)): 112 % of control
T/C (dose: 50.0 mg/kg/injection, schedule: Q04DX002 (ip), vehicle: Klucel (hydroxypropylcellulose) (HPC)): 106 % of control
T/C (dose: 100.0 mg/kg/injection, schedule: Q01DX001 (ip), vehicle: Klucel (hydroxypropylcellulose) (HPC)): 108 % of control
T/C (dose: 100.0 mg/kg/injection, schedule: Q04DX002 (ip), vehicle: Klucel (hydroxypropylcellulose) (HPC)): 104 % of control
T/C (dose: 200.0 mg/kg/injection, schedule: Q01DX001 (ip), vehicle: Klucel (hydroxypropylcellulose) (HPC)): 116 % of control
T/C (dose: 200.0 mg/kg/injection, schedule: Q04DX002 (ip), vehicle: Klucel (hydroxypropylcellulose) (HPC)): 102 % of control

CCN(CC)CCNCc1cc(Cl)c2cccnc2c1O
T/C (dose: 6.25 mg/kg/injection, schedule: Q04DX002 (ip), vehicle: saline): 90 % of control
T/C (dose: 12.5 mg/kg/injection, schedule: Q04DX002 (ip), vehicle: saline): 97 % of control
T/C (dose: 25.0 mg/kg/injection, schedule: Q04DX002 (ip), vehicle: saline): 94 % of control

O=C(CCCl)OCC#CCOC(=O)CCCl
T/C [7]: 101 % of control
T/C [8]: 94 % of control

CCCNC(C)(C)C(SSSC(c1ccc(C(F)(F)F)cc1)C(C)(C)NCCC)c1ccc(C(F)(F)F)cc1 (configuration not stated)
T/C [7]: 96 % of control
T/C [8]: 100 % of control
